In patent publication US9766236B2, “Taste receptor internalization assay” (PepsiCo, Inc., priority 2013, dated 2017):
Residues, ends and D or L forms follow the SMILES beside them.

Assays:
T2R14 = target: T1, T2R14 (Homo sapiens, UniProt Q9NYV8); assay: High-content imaging ring assay for T2R14 internalization in NCI-H716 cells; type: cell-based; conditions: compounds used at 10 mM, 37° C., immunofluorescence
T1 construct: These cells express the bitter receptors T2R1, T2R3, T2R4, T2R5, T2R7, T2R8, T2R9, T2R10, T2R13, T2R14; endogenous in cells; host or cells: NCI-H716 (ATCC CCL-251)
T1 sequence (Q9NYV8 1-317): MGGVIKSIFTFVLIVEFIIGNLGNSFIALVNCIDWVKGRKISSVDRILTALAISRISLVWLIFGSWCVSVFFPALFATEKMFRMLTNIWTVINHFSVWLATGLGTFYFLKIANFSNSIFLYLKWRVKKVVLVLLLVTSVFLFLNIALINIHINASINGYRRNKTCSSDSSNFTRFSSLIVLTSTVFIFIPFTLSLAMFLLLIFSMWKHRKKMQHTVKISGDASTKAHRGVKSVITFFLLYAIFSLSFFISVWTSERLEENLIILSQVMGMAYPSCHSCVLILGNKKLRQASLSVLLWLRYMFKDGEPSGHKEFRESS
From the text: The internalization assay disclosed herein, also called a “ring assay,” detects localization of receptors using antibodies specific for the receptors. A first detectable label, specific for nucleic acid (e.g., DAPI, Hoechst 33342, DRAQ5, DRAQ7, DRAQ9), is used to label cell nuclei; this labeling provides information such as the number of cells in a field and differentiates between the nuclear (e.g., DAPI-positive) and cytoplasmic (e.g., DAPI-negative) compartments. Antibodies which specifically bind to a taste receptor are used in conjunction with secondary antibodies conjugated with a second detectable label which can be differentiated from the first detectable label (e.g., FITC, TRITC, Cy3, Cy5, Alexa 350, 488, 546, 555, 568, 594, 633, 647). Diffuse circle staining is observed in the absence of a stimulus (e.g., in the presence of buffer alone). In the presence of a stimulus, however, a “ring” of internalized receptors is visualized. In some embodiments, ring-positive cells are calculated by correlation coefficient for pixel values of the nuclear and receptor signals. The extent of internalization can be expressed as percentage (mean±SD) of cells showing a continuous ring staining from multiple (e.g., quadruplicate) data points. NCI-H716 cell were grown in RPMI1690 media supplemented with 10% fetal bovine serum. Cells were seeded at density of 20,000 cells/well on PDL-coated 384-well plates. […] Alexa 488-conjugated antibodies and Hoechst 33342 were from Life Technology. 20,000 cells in PBS+10% FBS were plated on clear-bottom, PDL-coated, black-wall 384-well plates suitable for HCA imaging. For […] studies compounds were added to the cells. Stock solutions of all compounds were diluted in dimethyl sulfoxide (DMSO) and used at 10 mM. Control groups of cells also received DMSO (0.1%) in medium. NCI-H716 cells were stimulated with RebA (Purecircle) at 10 mM for indicating time points at 37° C. The cells were then fixed and processed for indirect immunofluorescence with antibodies against bitter receptor […]. All images were acquired with a 20× objective using ImageXpress Micro automated microscope. Hoechst 33342 staining is pseudo-colored blue and antibody specific staining is pseudo-colored green. […] The extent of internalization is expressed as the percentage (means±S.D.) of cells showing a continuous “Ring” staining from quadruplicate data points. Recycling of […] receptor correlates with decreased number of “Ring”-positive cells. Statistical analyses and graphs were made with Tibco Spotfire or GraphPad Prism.

GLUT4 = target: T2, GLUT4 (Homo sapiens, UniProt P14672); assay: High-content imaging ring assay for GLUT4 internalization in NCI-H716 cells; type: cell-based; conditions: endogenous GLUT4, FIG. 4B
T2 construct: we tested internalization of endogenous GLUT4 in NCI-H716 cells; endogenous in cells; host or cells: NCI-H716 (ATCC CCL-251)
T2 sequence (P14672 1-509): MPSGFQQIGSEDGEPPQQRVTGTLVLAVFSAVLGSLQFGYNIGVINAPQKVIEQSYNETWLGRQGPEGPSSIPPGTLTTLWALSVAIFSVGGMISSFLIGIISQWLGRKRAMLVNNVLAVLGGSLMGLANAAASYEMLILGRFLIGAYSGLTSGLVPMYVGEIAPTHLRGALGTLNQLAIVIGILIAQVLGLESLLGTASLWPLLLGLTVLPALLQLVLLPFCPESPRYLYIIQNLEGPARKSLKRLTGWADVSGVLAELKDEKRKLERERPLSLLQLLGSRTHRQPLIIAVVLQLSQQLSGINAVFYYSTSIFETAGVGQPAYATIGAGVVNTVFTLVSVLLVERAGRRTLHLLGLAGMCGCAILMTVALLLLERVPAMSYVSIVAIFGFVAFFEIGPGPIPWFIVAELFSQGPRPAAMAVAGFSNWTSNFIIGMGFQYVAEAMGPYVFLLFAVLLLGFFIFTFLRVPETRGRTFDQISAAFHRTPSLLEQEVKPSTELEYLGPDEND
From the text: The internalization assay disclosed herein, also called a “ring assay,” detects localization of receptors using antibodies specific for the receptors. A first detectable label, specific for nucleic acid (e.g., DAPI, Hoechst 33342, DRAQ5, DRAQ7, DRAQ9), is used to label cell nuclei; this labeling provides information such as the number of cells in a field and differentiates between the nuclear (e.g., DAPI-positive) and cytoplasmic (e.g., DAPI-negative) compartments. Antibodies which specifically bind to a taste receptor are used in conjunction with secondary antibodies conjugated with a second detectable label which can be differentiated from the first detectable label (e.g., FITC, TRITC, Cy3, Cy5, Alexa 350, 488, 546, 555, 568, 594, 633, 647). Diffuse circle staining is observed in the absence of a stimulus (e.g., in the presence of buffer alone). In the presence of a stimulus, however, a “ring” of internalized receptors is visualized. In some embodiments, ring-positive cells are calculated by correlation coefficient for pixel values of the nuclear and receptor signals. The extent of internalization can be expressed as percentage (mean±SD) of cells showing a continuous ring staining from multiple (e.g., quadruplicate) data points.
To explore further the role of GLUT4 in signaling by artificial sweeteners, we tested internalization of endogenous GLUT4 in NCI-H716 cells.

Row | Compound | T2R14 internalization ("Ring"-positive cells) (T2R14; FIG. 2) | GLUT4 internalization ("Ring"-positive cells) (GLUT4) | T2R14 internalization ("Ring"-positive cells) (T2R14; FIG. 2, listed as Reb A)
1 | C=C1C[C@@]23CC[C@H]4[C@@](C)(CCC[C@@]4(C)C(=O)O[C@@H]4O[C@H](CO)[C@@H](O)[C@H](O)[C@H]4O)[C@@H]2CC[C@]1(O[C@@H]1O[C@H](CO)[C@@H](O)[C@H](O[C@@H]2O[C@H](CO)[C@@H](O)[C@H](O)[C@H]2O)[C@H]1O[C@@H]1O[C@@H](C)[C@H](O)[C@@H](O)[C@H]1O)C3 [RebC] | T2R14 internalization increases |  | 
2 | O=C1NS(=O)(=O)c2ccccc21 [saccharine] |  | GLUT4 internalization increased | 
3 | COC(=O)[C@H](Cc1ccccc1)NC(=O)[C@@H](N)CC(=O)O [aspartame] (H-Asp-Phe-OMe) |  | GLUT4 internalization increased | 
4 | C=C1C[C@@]23CC[C@H]4[C@@](C)(CCC[C@@]4(C)C(=O)O[C@@H]4O[C@H](CO)[C@@H](O)[C@H](O)[C@H]4O)[C@@H]2CC[C@]1(O[C@@H]1O[C@H](CO)[C@@H](O)[C@H](O[C@@H]2O[C@H](CO)[C@@H](O)[C@H](O)[C@H]2O)[C@H]1O[C@@H]1O[C@H](CO)[C@@H](O)[C@H](O)[C@H]1O)C3 [RebA] | T2R14 internalization increases |  | induces T2R14 internalization
5 | CC1=CC(=O)[N-]S(=O)(=O)O1.[K+] [Ace-K] |  | GLUT4 internalization increased | 
6 | C=C1C[C@@]23CC[C@H]4[C@@](C)(CCC[C@@]4(C)C(=O)O[C@@H]4O[C@H](CO)[C@@H](O)[C@H](O)[C@H]4O[C@@H]4O[C@H](CO)[C@@H](O)[C@H](O)[C@H]4O)[C@@H]2CC[C@]1(O[C@@H]1O[C@H](CO)[C@@H](O)[C@H](O[C@@H]2O[C@H](CO)[C@@H](O)[C@H](O)[C@H]2O)[C@H]1O[C@@H]1O[C@H](CO)[C@@H](O)[C@H](O)[C@H]1O)C3 [RebD] | internalization was not observed |  | 
